Laboratory results published in publication PMC7927146, “Discovery of an Orally Available Diazabicyclooctane Inhibitor (ETX0282) of Class A, C, and D Serine β-Lactamases” (Journal of Medicinal Chemistry, 2020).
Structures can show the parent of a compound that is named as a salt.

Columns and labels:
log D = format: physicochemical
[1] = cited from earlier work
E. coli ARC2687 = experiment: Neutropenic mouse thigh infection model; format: in vivo; settings: CPDP alone, po, q6h
E. coli TEM-1 (Class A) = E. coli TEM-1 (Class A) (Escherichia coli, UniProt P62593); experiment: β-lactamase inhibition, nitrocefin hydrolysis progress curves; format: biochemical; settings: supplement CSV; incubation time not given, values correspond to 60 min
Chain of E. coli TEM-1 (Class A) (P62593 24-286 limits assumed): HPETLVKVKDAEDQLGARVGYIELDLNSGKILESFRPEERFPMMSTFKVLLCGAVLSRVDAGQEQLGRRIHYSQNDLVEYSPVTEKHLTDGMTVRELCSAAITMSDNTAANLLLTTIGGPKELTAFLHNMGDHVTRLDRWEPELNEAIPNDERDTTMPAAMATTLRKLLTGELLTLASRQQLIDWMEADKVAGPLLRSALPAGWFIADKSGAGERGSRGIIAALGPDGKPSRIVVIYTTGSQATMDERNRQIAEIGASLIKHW

[2] = target: class A, C, and D serine β-lactamases; experiment: β-lactamase inhibition, statements over the enzyme panel; format: biochemical; settings: 60 min; TEM-1, AmpC, OXA-48; read-out: IC50 against β-lactamases, all values
Description: The spectrum of class A, C, and D β-lactamase inhibition by ETX1317 was evaluated by measuring its ability to protect the β-lactamase substrate nitrocefin from degradation using previously described methods.[13]
The methods used to measure inhibition of β-lactamases were the same as those described in the supplement to Durand-Reville et al.[13] Reaction progress curves at 490 nm for hydrolysis of the chromogenic β-lactamase substrate nitrocefin (SynGene, Bangalore, India) at 100 μM were measured for a range of inhibitor concentrations in 0.1 M sodium phosphate (pH 7.0), 10 mM NaHCO3, and 0.005% Triton X-100 at ambient temperature using a Spectramax absorbance plate reader (Molecular Devices, Sunnyvale, CA). The set of 12 progress curves were fit globally to a second-order kinetic model of enzyme inactivation. […] The second-order inactivation rate constant kinact/Ki was calculated from the set of progress curves using Global Kinetic Explorer (Kintek) as previously described.[13]

[3] = system: E. coli ARC3627 (OXA-1, AmpC, CTX-M-15, TEM-1); experiment: Broth microdilution MIC (BLI alone, cefpodoxime, cefpodoxime + BLI); format: cell-based; settings: for MIC: Escherichia coli
[4] = system: K. pneumoniae ARC561 (OKP-6, AmpC, OXA-2, SHV-18) ATCC700603; experiment: as above; format: cell-based; settings: for MIC: Klebsiella pneumoniae, ATCC700603
[5] = target: P. aeruginosa AmpC (Class C) (Pseudomonas aeruginosa, UniProt P24735); experiment: β-lactamase inhibition, nitrocefin hydrolysis progress curves; format: biochemical
Chain of P. aeruginosa AmpC (Class C) (P24735 27-397): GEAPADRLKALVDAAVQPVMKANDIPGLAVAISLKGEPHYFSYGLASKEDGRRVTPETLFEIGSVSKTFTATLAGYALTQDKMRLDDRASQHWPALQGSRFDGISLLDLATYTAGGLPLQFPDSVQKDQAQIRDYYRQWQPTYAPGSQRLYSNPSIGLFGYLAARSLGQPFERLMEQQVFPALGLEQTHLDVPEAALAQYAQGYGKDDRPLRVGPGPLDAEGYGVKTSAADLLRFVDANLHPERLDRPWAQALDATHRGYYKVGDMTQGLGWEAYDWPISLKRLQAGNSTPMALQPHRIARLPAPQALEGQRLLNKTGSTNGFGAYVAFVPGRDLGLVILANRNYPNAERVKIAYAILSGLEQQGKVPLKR

[6] = Stability in liver S9 fraction; format: in vitro ADME, rat; settings: 37 °C; for Half-life, Rat liver S9: 0.8 mg/mL protein, 10 μM
Description: (§1) Liver and intestinal S9 subcellular fractions (Xenotech) from rat and human tissue were diluted to a protein concentration of 0.8 mg/mL in 100 mM potassium phosphate buffer, pH 7.4, and preincubated in a 37 °C water bath for 5 min prior to addition of 10 μM (final) of compound of interest. Serial aliquots were removed at 0, 2, 5, 10, 20, 40, and 60 min and quenched in acetonitrile with internal standard prior to LC/MS/MS[30] to determine concentrations of prodrug. First order degradation half-lives were determined from the slope of the log–linear plots of the depletion data.

[7] = Stability in liver S9 fraction; format: in vitro ADME, human; settings: 37 °C; for Half-life, Human liver S9: 0.8 mg/mL protein, 10 μM
Description: as §1

[8] = Buffer stability of ester prodrugs; format: physicochemical; settings: potassium phosphate buffer pH 7.4, 37 °C; for Half-life, pH 7.4 buffer: 10 μM
Description: Buffer stability (potassium phosphate buffer, pH 7.4) was evaluated using the same protocol but without adding the S9 subcellular fractions.

[9] = Stability in intestinal S9 fraction; format: in vitro ADME, human; settings: for half-life at 10 μM: human, intestinal S9 fraction, pH 7.4
Description: as §1

[10] = Stability in intestinal S9 fraction; format: in vitro ADME, rat; settings: for half-life at 10 μM: rat, intestinal S9 fraction, pH 7.4
Description: as §1

[11] = Intravenous and oral pharmacokinetics in rats; settings: rat, 10 mg/kg equivalent dose of ETX1317
[12] = Phase 1 clinical trials in healthy volunteers (NCT03491748); format: in vivo, human; settings: alone or in combination with cefpodoxime proxetil
Description: (§2) The safety of ETX0282 was investigated with a 14-day toxicology study under Good Laboratory Practice (GLP) in rats and dogs following daily oral administration. The doses of 500 mg kg^–1 day^–1 and 400 mg kg^–1 day^–1 were established as the NOAELs (no observed adverse effect level) for rats and dogs, respectively.

[13] = 14-day GLP toxicology study, daily oral administration; settings: in vivo
Description: as §2

[14] = target: K. pneumoniae OXA-48 (Class D) (Klebsiella pneumoniae, UniProt Q6XEC0); experiment: biochemical
Chain of K. pneumoniae OXA-48 (Class D) (Q6XEC0 23-265, looked up): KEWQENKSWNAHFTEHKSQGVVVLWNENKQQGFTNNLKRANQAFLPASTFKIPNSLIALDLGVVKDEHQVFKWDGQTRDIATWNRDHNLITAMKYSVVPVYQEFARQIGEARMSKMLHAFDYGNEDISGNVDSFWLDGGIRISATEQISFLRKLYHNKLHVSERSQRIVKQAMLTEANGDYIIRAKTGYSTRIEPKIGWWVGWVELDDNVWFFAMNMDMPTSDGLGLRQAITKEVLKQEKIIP

[15] = system: MDR Enterobacterales clinical isolates; experiment: Broth microdilution MIC, statements over the isolate panel; format: cell-based; settings: read-out: MIC across the clinical isolates of Table 6
Description: (§3) The potency and spectrum of β-lactamase inhibition by ETX1317 supported further antibacterial profiling in combination with β-lactams against relevant Gram-negative clinical isolates. Approved penicillins and cephalosporins administered orally were evaluated, using not only MIC as a criterion but also oral bioavailability, approved dose levels, and unbound plasma exposures. Cefpodoxime (CPD) emerged as the lead β-lactam candidate.[30] Its approved use as an orally bioavailable proxetil ester prodrug to treat UTI infections was also aligned with our potential target product profile. A fixed 1:2 ratio of cefpodoxime/ETX1317 was utilized as the testing paradigm for antimicrobial susceptibility. […] The addition of ETX1317 to CPD restored its activity to ≤0.5 μg/mL across all Enterobacterales isolates tested, including the CRE strains (identified by “a” in Table 6).
(§4) The broth microdilution susceptibility testing was conducted according to CLSI[39] using CAMHB. Durlobactam and avibactam were synthesized at Entasis Therapeutics. Cefpodoxime (catalog no. J66225) was purchased from Alfa Aesar.

[16] = system: E. coli ARC2687 (CTX-M-14, AmpC); experiment: Broth microdilution MIC; format: cell-based; settings: Escherichia coli, agent alone
Description: as §3, §4

[17] = 0.8 mg/mL protein, 10 μM, 37 °C
[18] = species not given in the sentence, read-out: t1/2, stability to intestinal esterases

NC(=O)[C@@H]1CC[C@@H]2CN1C(=O)N2OS(=O)(=O)O [Avibactam, avibactam]
logD (log D): < 0
oral bioavailability F [1]: < 10%

COCC1=C(C(=O)OC(C)OC(=O)OC(C)C)N2C(=O)[C@@H](NC(=O)/C(=N\OC)c3csc(N)n3)[C@H]2SC1 (stereo partly drawn) [CPDP, cefpodoxime proxetil]
efficacy in thigh model (E. coli ARC2687): not efficacious

CC1=C[C@@H]2CN(C(=O)N2OC(F)(F)C(=O)O)[C@@H]1C(N)=O [Compound 2]
IC50 (E. coli TEM-1 (Class A)): 0.001 µM
IC50 [2]: < 15 nM

CC1=C[C@@H]2CN(C(=O)N2O[C@H](F)C(=O)O)[C@@H]1C(N)=O [Compound 4]
fold reduction of cefpodoxime MIC compared to the MIC with no BLI ([3]; E. coli ARC3627, BLI 4 μg/mL): greater than 128 fold
IC50 (E. coli TEM-1 (Class A)): 0.001 µM
fold reduction of cefpodoxime MIC compared to the MIC with no BLI ([4]; K. pneumoniae ARC561, BLI 4 μg/mL): greater than 128 fold

CC1=C[C@@H](C(N)=O)N2C[C@@H]1N(O[C@H](F)C(=O)O)C2=O [Compound 13, (2R)-2-(((2S,5R)-2-Carbamoyl-4-methyl-7-oxo-1,6-diazabicyclo[3.2.1]oct-3-en-6-yl)oxy)-2-fluoroacetic Acid Lithium Salt]
IC50 ([5]; IC50 (µM) P. aeruginosa AmpC (Class C), supplement CSV, incubation time not given, values correspond to 60 min): 0.16 µM
IC50 (E. coli TEM-1 (Class A)): 0.003 µM
MIC [4]: 16 µg/mL

CC1=C[C@@H](C(N)=O)N2C[C@@H]1N(O[C@@H](F)C(=O)O)C2=O [Compound 14]
MIC [3]: 0.5 µg/mL

CCOC(=O)[C@@H](F)ON1C(=O)N2C[C@H]1C=C(C)[C@H]2C(N)=O [Compound 15]
Half-life, Rat liver S9 [6]: 4.4 min
Half-life, Human liver S9 [7]: 6.5 min
Half-life, pH 7.4 buffer [8]: 41 min
Half-life, Human intestinal S9 [9, 17]: 38 min
Half-life, Rat intestinal S9 [10, 17]: 39 min

CC1=C[C@@H]2CN(C(=O)N2O[C@H](F)C(=O)OC(C)C)[C@@H]1C(N)=O [Compound 16]
half-life at 10 μM [9, 18]: > 120 min
half-life at 10 μM [10, 18]: > 120 min

CCOC(=O)[C@H](F)ON1C(=O)N2C[C@H]1C=C(C)[C@H]2C(=O)NCCNS(N)(=O)=O [Compound 19]
half-life at 10 μM ([6]; rat, liver S9 fraction, pH 7.4, 0.8 mg/mL protein): 10 min
half-life at 10 μM ([7]; human, liver S9 fraction, pH 7.4, 0.8 mg/mL protein): 9.9 min
half-life at 10 μM ([8]; potassium phosphate buffer without S9 fractions): 26 min
half-life at 10 μM ([9]; 0.8 mg/mL protein, 10 μM, 37 °C, read-out: Half-life, Human intestinal S9): 22 min
half-life at 10 μM ([10]; 0.8 mg/mL protein, 10 μM, 37 °C, read-out: Half-life, Rat intestinal S9): 20 min

CCOC(=O)[C@H](F)ON1C(=O)N2C[C@H]1C(C)=C[C@H]2C(N)=O [Compound 20]
Half-life, Rat liver S9 [6]: 2.4 min
Half-life, Human liver S9 [7]: 2.4 min
Half-life, pH 7.4 buffer [8]: 22 min
Half-life, Human intestinal S9 [9, 17]: 6.9 min
Half-life, Rat intestinal S9 [10, 17]: 18 min

CC1=C[C@@H](C(N)=O)N2C[C@@H]1N(O[C@@H](F)C(=O)OC(C)C)C2=O [Compound 21]
Half-life, Rat liver S9 [6]: 3 min
Half-life, Human liver S9 [7]: 8.5 min
Half-life, pH 7.4 buffer [8]: 91 min
Half-life, Human intestinal S9 [9, 17]: 36 min
Half-life, Rat intestinal S9 [10, 17]: 68 min

CCOC(=O)[C@@H](F)ON1C(=O)N2C[C@H]1C(C)=C[C@H]2C(N)=O [Compound 22, Ethyl (2R)-2-[[(2S,5R)-2-Carbamoyl-4-methyl-7-oxo-1,6-diazabicyclo[3.2.1]oct-3-en-6-yl]oxy]-2-fluoro-acetate]
Half-life, Rat liver S9 [6]: 20 min
Half-life, Human liver S9 [7]: 27 min
Half-life, pH 7.4 buffer [8]: 44 min
Half-life, Human intestinal S9 [9, 17]: 35 min
Half-life, Rat intestinal S9 [10, 17]: 42 min

CC1=C[C@@H](C(N)=O)N2C[C@@H]1N(O[C@H](F)C(=O)OC(C)C)C2=O [Compound 23, (2R)-Isopropyl 2-(((2S,5R)-2-Carbamoyl-4-methyl-7-oxo-1,6-diazabicyclo[3.2.1]oct-3-en-6-yl)oxy)-2-fluoroacetate]
Half-life, Rat liver S9 [6]: 32 min
circulating concentrations of ETX0282 after oral ETX0282 [11]: no circulating concentrations of ETX0282 observed
Half-life, Human liver S9 [7]: 39 min
serious adverse events [12]: no serious adverse events reported
tolerability [12]: generally well-tolerated
Half-life, pH 7.4 buffer [8]: 186 min
NOAEL at 14 day ([13]; dog, dogs): 400 mg/kg/day
NOAEL at 14 day ([13]; rat, rats): 500 mg/kg/day
Half-life, Human intestinal S9 [9, 17]: 163 min
Half-life, Rat intestinal S9 [10, 17]: 240 min

CC1=C[C@@H]2CN(C(=O)N2OS(=O)(=O)O)[C@@H]1C(N)=O [Durlobactam, durlobactam]
IC50 ([14]; IC50 10 min, 10 min incubation): 24 ± 6 nM
IC50 ([14]; IC50 60 min, 60 min incubation): 5 nM
MIC [3]: 0.25 µg/mL
logD (log D): < 0
IC50 ([5]; IC50 10 min, P. aeruginosa AmpC (Class C), 10 min incubation): 0.008 ± 0.003 µM
IC50 ([5]; IC50 60 min, P. aeruginosa AmpC (Class C), 60 min incubation): 0.0058 µM
MIC [4]: 8 µg/mL
oral bioavailability F [1]: < 10%

COCC1=C(C(=O)O)N2C(=O)[C@@H](NC(=O)/C(=N\OC)c3csc(N)n3)[C@H]2SC1 [cefpodoxime]
MIC [15]: > 64 µg/mL

C[C@H]1COc2c(N3CCN(C)CC3)c(F)cc3c(=O)c(C(=O)O)cn1c23 [levofloxacin]
MIC [16]: > 4 µg/mL

C[C@@H](O)[C@H]1C(=O)N2C(C(=O)O)=C(S[C@@H]3CN[C@H](C(=O)N(C)C)C3)[C@H](C)[C@H]12 [meropenem]
MIC [16]: 0.03 µg/mL
